Consider four compounds from ChEMBL document CHEMBL5725542, “Plasminogen activator inhibitor-1 inhibitors and methods of use thereof” (2017).

What is called IC50 is the midpoint of a concentration-inhibition curve.

Experiment [1] is described as follows: Fluorometric PAI-1/uPA IC50 Plate Assay: To determine the efficacy of various synthesized compounds as PAI-1 inhibitors, a fluorometric plate assay was carried out to measure the half maximal inhibitory concentration (IC50) of these compounds on recombinant active human PAI-1 in vitro. An IC50 is a measure of the effectiveness of a compound in inhibiting biological or biochemical function. Stated another way, IC50 represents the concentration of a drug that is required for 50% inhibition in vitro. The IC50 of various compounds was measured using a fluorometric plate assay. PAI-1 inhibitor compounds were dissolved in DMSO to a final concentration of (10-50 mM), depending upon solubility. Compounds were then diluted in physiologic buffer (40 mM HEPES, 100 mM NaCl, 0.05% Tween-20, pH7.4) containing 10% DMSO and a dilution series (from 0 to 1000 uM depending on solubility) was prepared. 80 μL of compound was added per well to a 96-well black, opaque microplate in duplicate. 10 μL of 20 nM Recombinant active human PAI-1 (Molecular Innovations) in physiologic buffer (40 mM HEPES, 100 mM NaCl, 0.05% Tween-20, 10% DMSO, pH 7.4), or […] physiologic buffer with 10% human plasma, was added and the mixture was agitated for 15 minutes at room temperature. 10 μL of 25 nM uPA (Rheotromb®) was added to each reaction well and the plate was agitated for an additional 30 minutes at room temperature. Tripeptide aminomethylcoumarin Gly-Gly-Arg-AMC (Calbiochem) fluorogenic substrate (100 μL of 100 μM) was then added and residual uPA activity was determined based upon cleavage of this substrate. The rate of AMC release by uPA (fluorescence) was measured at an excitation wavelength of 370 nm and an emission wavelength of 440 nm. Controls included PAI-1 and uPA in the absence of compound and uPA alone. Percent PAI-1 inhibition was calculated using the following formula: [(uPA alone-uPA/PAI-1+ compound)/(uPA alone-PAI-1/uPA)]*100%. The IC50 was calculated using Graphit (IC50 0-100%).

Experiment [2] can be described thus: (§1) Fluorometric PAI-1/uPA IC50 Plate Assay (10% plasma buffer): To determine the efficacy of various synthesized compounds as PAI-1 inhibitors, a fluorometric plate assay was carried out to measure the half maximal inhibitory concentration (IC50) of these compounds on recombinant active human PAI-1 in vitro. An IC50 is a measure of the effectiveness of a compound in inhibiting biological or biochemical function. Stated another way, IC50 represents the concentration of a drug that is required for 50% inhibition in vitro. The IC50 of various compounds was measured using a fluorometric plate assay. PAI-1 inhibitor compounds were dissolved in DMSO to a final concentration of (10-50 mM), depending upon solubility. Compounds were then diluted in physiologic buffer (40 mM HEPES, 100 mM NaCl, 0.05% Tween-20, pH7.4) containing 10% DMSO and a dilution series (from 0 to 1000 uM depending on solubility) was prepared. 80 μL of compound was added per well to a 96-well black, opaque microplate in duplicate. 10 μL of 20 nM Recombinant active human PAI-1 (Molecular Innovations) in physiologic buffer (40 mM HEPES, 100 mM NaCl, 0.05% Tween-20, 10% DMSO, pH 7.4), or […] physiologic buffer with 10% human plasma, was added and the mixture was agitated for 15 minutes at room temperature. […].

Experiment [3] in a line: as §1, with “(1.5% BSA” for “(10% plasma”.

Take `COc1cc(CO)cc(CNC(=O)C(=O)NN)c1`: the IC50 in experiment [1] was 4320 µM. Regarding `NNC(=O)C(=O)NCCc1ccc(CO)c(CO)c1`, the IC50 in experiment [1] is 2560 µM. For `COc1cc(CO)ccc1CNC(=O)C(=O)NN`, in experiment [1], the IC50 was 2280 µM. Regarding `[C-]#[N+]c1ccc(CNC(=O)C(=O)NN)cc1`, the IC50 in experiment [1] is 5470 µM; in experiment [2] it was 851 µM; in experiment [3] it was 892 µM.
